The values that follow come from patent US6790833B2, “Antifungal and antibacterial agents” (priority 2001, dated 2004).

Data set [1] deals with C. neoformans. Nature of the data set: Fluorescence light and confocal microscopy, internalization of FITC-labeled peptide. Type of data set: cell-based, Cryptococcus neoformans. How it is done: (§1) The internalization of MUC7 20-mer into fungi was visualized in C. albicans and C. neoformans. Untreated cells (10^7) or cells preincubated with 20 mM sodium azide, 300 μM CCCP, 50 mM Ca^++ or 50 mM Mg^++ were then treated with 50 μM FITC-MUC7 20-mer for 45-90 minutes in 100 μl of Na phosphate buffer (10 mM, pH 7.4) at 37° C. Untreated cells were also incubated with 50 μM FITC-MUC7 20-mer at 4° C. The cells were then extensively washed with phosphate buffer, concentrated and resuspended in the same buffer. The cell suspension was then quickly mounted on slides with sealed cover-slips. Fluorescence light micrographs were made on a Nikon Optiphot microscope, with a fluorescent light source.
(§2) The intracellular localization of FITC-MUC7-20mer was investigated in a double-labeling experiment using MitoTracker Red mitochondrial probe. C. albicans and C. neoformans were incubated with 500 nM MitoTracker Red in 10 mM Na phosphate buffer, pH 7.4 for 15 minutes at room temperature, washed three times with the same buffer, and subsequently incubated with 50 μM FITC-MUC7 20-mer. After 20 min. incubation at 37° C., the suspension was washed with phosphate buffer extensively. The cell suspension was then quickly mounted on slides with sealed cover-slips. Confocal fluorescence microscopy was performed with a BioRad MRC-1024 confocal microscope system with Krypton-argon laser which outputs 488, 568 and 647 nm excitation line and Nikon upright epifluorescence microscope (Zeiss 60× oil immersion planApp objective with 1.4 numerical aperture).
(§3) The internalization of MUC7 20-mer and 12-mer-3 into fungi was visualized using FITC labeled peptides. Cells (10^7) were treated with 50 μM FITC-MUC7 20-mer or 12-mer-3 for 45-90 mins in 100 μl of Na phosphate buffer (10 mM, pH 7.4) at 37° C. The cells were then processed and visualized as described in Example 1.

The test system of data set [2] is C. neoformans. The data set is described as follows: Antifungal (cidal) activity assay, loss of cell viability. Particulars: for Loss of Cell viability (%): Cryptococcus neoformans, 6.25 μM, pH 7.4. Type of data set: cell-based, Cryptococcus neoformans. The source says: (§4) Azole-sensitive (# 2-76) and azole-resistant (# 12-99) clinical isolates of C. albicans were a gift from Dr. Theodore C. White (University of Washington and Seattle Biomedical Research Institute, Seattle, Wash.). An azole-sensitive Candida glabrata (C. glabrata) was purchased from ATCC (ATCC 90030) and its azole-resistant counterpart, clinical isolate 65C, was obtained from Dr. John E. Bennett (National Institute of Allergy and Infectious Diseases, Bethesda, Md.). A clinical isolate of Candida krusei (C. krusei) was obtained from the Erie County Medical Center, Buffalo, N.Y. Amphotericin B-sensitive (CN2) and -resistant (CN2843) C. neoformans strains were obtained from AIDS patients with cryptococcal meningitis and were generously provided by Dr. John H. Rex (University of Texas Medical School, Houston, Tex.). Additionally, Saccharomyces cerevisiae (S. serevisiae) strain S288C was provided by Dr. D. Kosman, Department of Biochemistry, University at Buffalo, the State University of New York. All fungi were streaked and grown on SAB plates at 37° C., except S. cerevisiae, which was grown at 30° C. until large colonies were formed. One colony was then picked and resuspended in Na phosphate buffer (pH 7.4) and the concentration was adjusted to 1×10^5 cell/ml for the antifungal assay described below.
(§5) Two fold serial dilutions of each peptide (ranging from 100 μM down to 1.5625 μM) in 20 μl of 10 mM Na phosphate buffer, pH 7.4, were incubated with an equal volume of bacterial or fungal strain (10^5 cells/ml) for 1.5 hours at 30° C. for S. cerevisiae and 37° C. for the rest of strains tested. At the end of incubation, the samples were diluted 20 fold and aliquots (˜120 cells) of each sample were plated on appropriate plates depending on the strain tested, as indicated above. Plates were incubated for 1 to 7 days aerobically or anaerobically, depending on the strain tested. Colonies were then counted, and the loss of cell viability was plotted as a function of protein concentration. Fungicidal activities against C. albicans and C. neoformans were also tested at 4° C.
(§6) To test the effect of inhibitors of oxidative phosphorylation in the mitochondrial system on peptide-induced killing, C. albicans and C. neoformans (CN2) were preincubated with either 20 mM sodium azide or 300 μM CCCP for 2 hours at 37° C. The cidal assays were then carried out as described above. In separate control experiments, both inhibitors were evaluated for their toxicity toward C. albicans and C. neoformans (CN2) in the absence of peptides. At these concentrations, neither compound had any cidal effect. In addition, the fungicidal activities of MUC7 20-mer and Hsn-5 (25 μM) in 10 mM Na phosphate buffer (pH 7.4) in the presence of varying concentrations (1-50 mM) of Ca^++ (as CaCl2) or Mg^++ (as MgCl2) were examined.
(§7) A time course study of peptide-induced killing was statistically analyzed by student t-test.
(§8) Two fold serial dilutions of each peptide (ranging from 50 or 25 μM down to 1.5625 μM) in 20 μl of 10 mM Na phosphate buffer, pH 7.4, were incubated with an equal volume of fungal strain (10^5 cells/ml, also in Na phosphate buffer) for 1.5 hours at 37°. At the end of incubation, the samples were diluted 20 fold with the same buffer and aliquots (˜150 cells) of each sample were plated on SAB plates. Plates were incubated for 1 to 2 days for C. albicans and C. neoformans, respectively. Colonies were then counted, and the loss of cell viability was plotted as a function of protein concentration. The statistical analysis was as described in Example 1.

Data set [3] relates to C. albicans. Nature of the data set: Fluorescence light and confocal microscopy, internalization of FITC-labeled peptide. Type of data set: cell-based, Candida albicans. How it is done: as §1, §2, §3
Data set [4] relates to C. albicans. Nature of the data set: Antifungal (cidal) activity assay, loss of cell viability. Type of data set: cell-based, Candida albicans. The settings on record: for Loss of Cell viability (%): Candida albicans, 6.25 μM, pH 7.4.
Text: as §4, §5, §6, §7, §8

For a further data set, the system named is A. actinomycetemcomitans. Nature of the data set: Fluorescence microscopy, internalization of FITC-labeled peptide in bacteria. Type of data set: cell-based, Actinobacillus actinomycetemcomitans. Particulars: data not shown. An excerpt:
In order to visualize the association of 20-mer with fungi or bacteria and its fungal cellular localization, N-terminal FITC-labeled MUC7 20-mer was used. […] In addition, confocal fluorescence microscopy was used to study the intracellular target of the peptides.

Data set [5] concerns C. albicans. Nature of the data set: Fungal transmembrane potential, DiSC3(5) dye release. Type of data set: cell-based, Candida albicans. Particulars: peptide 18 μM, 1500 second. How it is done: (§9) Peptide-induced permeabilization of C. albicans and C. neoformas cell membranes was monitored by measuring changes in transmembrane potential. Measurements were carried out using the transmembrane potential sensitive dye 3,3′-dipropyl-2,2′-thiadicarbocyanine iodide (DiSC3(5)). Fungi were grown overnight on SAB plates and resuspended in 10 mM Na phosphate buffer pH 7.4 at a concentration of 1×10^5 cells/ml. Dye was diluted in ethanol to achieve a final concentration of 714 nM. […] The use of this dye in fungal cells to monitor changes in permeabilization is reliable and well documented. This cationic dye accumulates on membranes, is translocated into the lipid bilayer and aggregates within the confined membrane interior. Once aggregated inside the cell, the molecules interact with each other, losing energy, and decreasing fluorescence through a process called quenching. If permeabilization occurs, dye is released into the medium and it regains its fluorescent properties, allowing it to be detected. Experiments were carried out using a spectrofluorimeter (Perkin Elmer LS 50 B). A water bath and circulator was connected to the machine.

For data set [6], the system named is C. neoformans. The data set is described as above. Particulars: peptide 18 μM, 1500 second. Type of data set: cell-based, Cryptococcus neoformans. How it is done:
as §9

Where [7] appears, read: 4° C., 20 mM sodium azide, 300 μM CCCP.

Where a SMILES comes first, the peptide text is derived from it.

As for `CC[C@H](C)[C@H](NC(=O)[C@H](Cc1ccccc1)NC(=O)[C@@H]1CCCN1C(=O)[C@H](CCCCN)NC(=O)[C@H](CCC(N)=O)NC(=O)[C@H](Cc1c[nH]cn1)NC(=O)[C@H](C)NC(=O)[C@@H](N)CC(C)C)C(=O)N[C@@H](CCCNC(=N)N)C(=O)N[C@@H](CCCCN)C(=O)N[C@@H](CO)C(=O)N[C@@H](Cc1ccc(O)cc1)C(=O)N[C@@H](CCCCN)C(=O)N[C@@H](CS)C(=O)N[C@@H](CC(C)C)C(=O)N[C@@H](Cc1c[nH]cn1)C(=O)N[C@@H](CCCCN)C(=O)N[C@@H](CCCNC(=N)N)C(=O)N[C@@H](CS)C(=O)N[C@@H](CCCNC(=N)N)C(=O)O` [Peptide 20-mer] (H-LAHQKPFIRKSYKCLHKRCR-OH; N-terminus and C-terminus assumed), the “internalization of FITC-labeled peptide” value with C. neoformans [1] (50 μM, 45-90 minutes, 37° C.) is “internalization is observed”; in the data set on C. albicans [3] (50 μM, 45-90 minutes, 37° C.) it was “internalization is observed”. Moreover, the “uptake at 4° C. or after pretreatment with sodium azide or CCCP” value in the data set with C. neoformans [1] (setting [7]) and with C. albicans [3] (setting [7]) was “did not affect uptake” each time. Further, in the data set on C. neoformans [2] (25 μM), the “killing retained in the presence of Ca++” value is 90%. Further, the “killing retained in the presence of Mg++” value with C. neoformans [2] (25 μM) was 84%. Besides, the “effect of pretreatment with CCCP or sodium azide on peptide-induced killing” value with C. neoformans [2] (C. neoformans, 300 μM CCCP or 20 mM sodium azide, 2 hours) is “did not protect”; in the data set on C. albicans [4] (C. albicans, 300 μM CCCP or 20 mM sodium azide, 2 hours), “did not protect”. In addition, the “activity at 4° C.” value in the data set with C. neoformans [2] (C. neoformans, 4° C.) is reported as “hardly affected”. Also, the “Loss of Cell viability (%)” value is reported as 96 + 2% in the data set on C. neoformans [2] (30 min); 98 + 1% in the data set with C. neoformans [2] (45 min); 100 + 0% in the data set with C. neoformans [2] (90 min); 42 + 5% in the data set on C. albicans [4] (15 min); 52 + 1% in the data set on C. albicans [4] (30 min); 64 + 3% in the data set with C. albicans [4] (45 min). Also, the “Loss of Cell viability (%)” value with C. albicans [4] (90 min) is 74 + 6%. Further, the “killing activity at 4° C.” value with C. albicans [4] is around 90%. Further, in the data set on C. albicans [4] (C. albicans, 1 mM Ca++ or Mg++, peptide 25 μM), the “effect of 1 mM Ca++ or Mg++ on anticandidal activity” value is on record as “limited effect”. Moreover, the “anticandidal activity sustained in the presence of Ca++ or Mg++” value with C. albicans [4] (C. albicans, 10 mM Ca++ or Mg++, peptide 25 μM) came to 10%. Moreover, the “internalization in bacterial cells” value with A. actinomycetemcomitans is “seen on the cell membrane and the inside”. The “release of DiSC3(5) dye (loss of membrane potential)” value with C. albicans [5] and with C. neoformans [6] was “rapid release of dye” each time.
